From patent publication US5034396A, “Method of treating depression with optically active isomers of 20,21-dinoreburnamenines” (Roussel Uclaf, priority 1987, dated 1991) come the findings set out here.

Assay [1] deals with alpha2 adrenergic receptors. The assay can be described thus: Affinity for the alpha2 adrenergic receptors (3H rauwolscine displacement, rat cortex membranes). It is filed as binding. The settings on record: 3H rauwolscine 0.15 nM, 45 minutes at 25° C., from CD (phentolamine) and CX (product) concentrations inhibiting 50% of specific fixation. As for the experimental part:
(1) Affinity for the alpha2 adrenergic receptors
10 cortices removed from the brains of male rats weighing an average of 150 g were homogenized in 90 ml of sucrose 0.32M and after centrifuging the homogenized mixture at 1,000 g for 10 minutes at 0° C., the supernatant was centrifuged at 30,000 g for 10 minutes at 0° to 4° C. The new residue obtained was suspended in 480 ml of NaKPO4 buffer, pH 7.4, 50 mM. 2 ml of the suspension were then incubated for 45 minutes at 25° C. in the presence of ^3 H rauwolscine at a concentration of 0.15 nM: (i) alone (ii) with increasing concentrations of the product under test, or (iii) to determine the non-specific fixation, with non-radioactive phentolamine at a concentration of 10^-5 M. The incubated suspensions were filtered on Whatman GF/C and the filters were washed three times with 5 ml of NaKPO4 buffer, pH 7.4 at 0° C. The radioactivity of the filters was measured by liquid scintillation.
The affinity of the product tested for the alpha2 adrenegic receptors was given relative to phentolamine as reference product.
CD=concentration of phentolamine inhibiting 50% of the specific fixation of the ^3 H rauwolscine:
CX=concentration of the product under test inhibiting 50% of the specific fixation of the ^3 H rauwolscine.

Another assay has as its system Sprague Dawley rats. The assay can be described thus: Test of anti-depressive activity (forced swimming immobility). It counts as in vivo. The settings on record: Rattus norvegicus, ip, immobility during 5 minutes, intraperitoneally 24 hours, 5 hours and a half-hour before the test, read-out: DA50 (the source's name). As for the experimental part: (4) Test of anti-depressive activity
The tests were carried out on groups of 5 Sprague Dawley rats and the non-conditioned animals were put for 15 minutes in a vertical perspex cylinder (diameter: 18 cm, height: […]) containing water at 25° C. to a height of 15 cm (initial swimming test). They were then dried for 15 minutes in an enclosure heated to 32° C. and 24 hours later, they were replaced in the cylinder filled with water, and the total duration of the periods of immobility was measured during 5 minutes. The compound was administered intraperitonally successively 24 hours, 5 hours and a half-hour before the test. The first administration was made immediately after the first swimming test and just before replacing the animals in their breeding box. The averages of the groups treated were compared with those of the control group by the Dunnett test.

Assay [2] concerns mice. Briefly: Test of neuronal protection in mice (kainic acid striatal lesion, serum enolase gamma-gamma). It counts as in vivo. The settings on record: mouse, 2 μg kainic acid in right striatum; product intraperitoneally 60 minutes before; blood samples 24 hours later; dose not given. As for the experimental part:
(3) Test of neuronal protection in mice
A cerebral lesion was carried out on the mouse by injection in the right striatum of 2 μg of kainic acid in a volume of 0.5 μl. […] The products were injected intraperitonally 60 minutes before the neurotoxic and the blood samples were taken 24 hours later.

For assay [3], the system named is mice. Briefly: Hypobaric anoxia test on mice. It is filed as in vivo. The settings on record: depression of 600 mm Hg, max 3 minutes, intraperitoneally 60 minutes before the test, dose not given. How it is done: (2) Hypobaric anoxia test on mice
This consisted of measuring over a maximum duration of 3 minutes the survival time of mice placed in a 2 liter enclosure in which there was a depression of 600 mm Hg. The products were administered intraperitoneally at a volume of 0.2 ml/10 g 60 minutes before the test.

Take `O[C@@H]1C[C@H]2CCCN3CCc4c(n1c1ccccc41)[C@H]23` [Example 4, (3α, 14β) 14,15-dihydro-20,21-dinoreburnamenin-14-ol]: in assay [1], the “ARL (relative affinity for alpha2 adrenergic receptors, relative to phentolamine)” value turned out to be 57. For the same compound, the ED50 in the assay on Sprague Dawley rats is around 5 mg/kg.

Regarding `C1=Cn2c3c(c4ccccc42)CCN2CCC[C@H]1[C@@H]32` [Example 5, (3α) 20,21-dinoreburnamenine], the “ARL (relative affinity for alpha2 adrenergic receptors, relative to phentolamine)” value in assay [1] is on record as 8.

On to `O[C@H]1C[C@@H]2CCCN3CCc4c(n1c1ccccc41)[C@@H]23` [Example 3, (14α, 16α) 14,15-dihydro-20,21-dinoreburnamenin-14-ol], for which the “ARL (relative affinity for alpha2 adrenergic receptors, relative to phentolamine)” value in assay [1] came out at 0.3. Moreover, the enolase gamma-gamma with mice [2] was -24%. For the same compound, the ED50 in the assay on Sprague Dawley rats is around 10 mg/kg. Also, in the assay with mice [3], the Survival time result is listed as “+37%”.

Turning to `C1=Cn2c3c(c4ccccc42)CCN2CCC[C@@H]1[C@H]32` [Example 6, (16α) 20,21-dinoreburnamenine], the “ARL (relative affinity for alpha2 adrenergic receptors, relative to phentolamine)” value in assay [1] was 633.
